From patent US8029764B2, “Methods for detection of colorectal cancer” (The Johns Hopkins University, priority 2001, dated 2011)

Test system: colorectal tissue transcripts
Test: SAGE of normal, adenoma and cancer colorectal tissue (transcript tag counts)
Design: species or system human
Details: for AD1 (SAGE tag count): SAGE library AD1; for AD2 (SAGE tag count): SAGE library AD2; for CA1 (SAGE tag count): SAGE library CA1; for CA2 (SAGE tag count): SAGE library CA2; for NC1 (SAGE tag count): SAGE library NC1; for NC2 (SAGE tag count): SAGE library NC2
Summary of the method: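 Tag counts reflect transcript abundance, each mRNA represented by a 15-base tag near its 3′ end. Excluding MHC tags, linkers and duplicate ditags, libraries were compared statistically: two each of normal epithelium, FAP-derived adenomas (>70% neoplastic) and carcinomas.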

Sequence | AD1 (SAGE tag count) | AD2 (SAGE tag count) | CA1 (SAGE tag count) | CA2 (SAGE tag count) | NC1 (SAGE tag count) | NC2 (SAGE tag count)
CTGGCTATCC (chemistry not fully specified) | 0 | 0 | 0 | 1 | 7 | 3
CTGGGCCTCT (chemistry not fully specified) | 2 | 2 | 3 | 3 | 22 | 22
CTGTACTTGT (chemistry not fully specified) | 1 | 1 | 0 | 0 | 9 | 5
CTGTGTGGCT (chemistry not fully specified; the letters are possibly those of the target site) | 1 | 0 | 0 | 0 | 0 | 12
CTTACAAGCA (chemistry not fully specified) | 2 | 3 | 4 | 3 | 21 | 13
CTTAGAGGGG (chemistry not fully specified) | 0 | 1 | 1 | 1 | 16 | 22
CTTATGGTCC (chemistry not fully specified) | 0 | 1 | 1 | 0 | 36 | 11
CTTCCAGCTA (chemistry not fully specified) | 22 | 20 | 14 | 19 | 64 | 31
CTTCTTGCCC (chemistry not fully specified) | 2 | 2 | 0 | 1 | 29 | 2
CTTGACATAC (chemistry not fully specified) | 4 | 4 | 0 | 0 | 18 | 20
CTTGATTCCC (chemistry not fully specified) | 5 | 0 | 2 | 5 | 26 | 9
GACATCAAGT (chemistry not fully specified) | 23 | 14 | 47 | 17 | 198 | 87
GACCAGCCCA (chemistry not fully specified) | 3 | 2 | 12 | 5 | 23 | 21
GACCAGTGGC (chemistry not fully specified) | 4 | 0 | 2 | 0 | 21 | 44
GACGCGGCGC (chemistry not fully specified) | 10 | 17 | 12 | 17 | 30 | 47
GAGAGCTCCC (chemistry not fully specified) | 3 | 0 | 2 | 1 | 5 | 11
GAGCACCGTG (chemistry not fully specified) | 1 | 0 | 0 | 1 | 7 | 4
GATATGTAAA (chemistry not fully specified) | 0 | 0 | 0 | 0 | 1 | 10
GATCCCAACT (chemistry not fully specified) | 5 | 7 | 1 | 1 | 9 | 29

Sequence | AD1 (SAGE tag count) | AD2 (SAGE tag count) | CA1 (SAGE tag count) | CA2 (SAGE tag count) | NC1 (SAGE tag count) | NC2 (SAGE tag count)
GATGAATCCG (chemistry not fully specified) | 2 | 2 | 1 | 2 | 12 | 14
GATGACCCCC (chemistry not fully specified) | 4 | 3 | 3 | 3 | 42 | 49
GCAAGAAAGT (chemistry not fully specified) | 0 | 4 | 0 | 1 | 48 | 0
GCACAGGTCA (chemistry not fully specified) | 1 | 0 | 1 | 1 | 5 | 9
GCACCCTTTC (chemistry not fully specified) | 0 | 0 | 1 | 0 | 13 | 5
GCACCTGTCG (chemistry not fully specified) | 0 | 0 | 1 | 0 | 2 | 9
GCAGCTCCTG (chemistry not fully specified) | 3 | 2 | 7 | 3 | 13 | 47
GCAGGAGGTG (chemistry not fully specified; the letters are possibly those of the target site) | 0 | 0 | 0 | 1 | 2 | 13
GCAGGGCCTC (chemistry not fully specified) | 41 | 69 | 39 | 51 | 128 | 165
GCCACATACT (chemistry not fully specified) | 0 | 0 | 0 | 0 | 3 | 9
GCCACGTGGA (chemistry not fully specified) | 5 | 2 | 7 | 1 | 19 | 16
GCCAGACACC (chemistry not fully specified) | 3 | 4 | 1 | 2 | 19 | 9
GCCAGGTTGC (chemistry not fully specified) | 1 | 1 | 1 | 1 | 14 | 5
GCCATCCTCC (chemistry not fully specified) | 0 | 1 | 0 | 0 | 9 | 13
GCCCACACAG (chemistry not fully specified) | 1 | 1 | 0 | 0 | 15 | 0
GCCCACGTCA (chemistry not fully specified) | 0 | 0 | 0 | 0 | 7 | 8
GCCCAGGGCC (chemistry not fully specified; the letters are possibly those of the target site) | 2 | 1 | 2 | 1 | 4 | 44
GCCCAGGTCA (chemistry not fully specified) | 136 | 128 | 58 | 22 | 519 | 447
GCCCAGTGGC (chemistry not fully specified) | 8 | 15 | 2 | 5 | 51 | 0
